What was measured:
[1] = test system: Na+-dependent Cl−/HCO3− exchanger (NCBE); assay: Inhibition of the Na+-dependent Cl−/HCO3− exchanger (NCBE) in human endothelial cells (pHi recovery, BCECF fluorescence, FLIPR); format: cell-based; details: inhibitor concentration of 10 μM; human endothelial cells (ECV-304); relative to 100% and 0% pHi recovery controls, 50 μM HOE 642 present
Procedure: Inhibition of the Na^+-dependent Cl^−/HCO3^− exchanger (NCBE) in human endothelial cells
Human endothelial cells (ECV-304) were detached from culture bottles with the aid of trypsin/EDTA buffer (0.05/0.02% in phosphate buffer) and, after centrifugation (100 g, 5 min), taken up in a buffered salt solution (mmol/l: 115 NaCl, 20 NH4Cl, 5 KCl, 1 CaCl2, 1 MgSO4, 20 N-(2-hydroxyethyl)piperazine-N′-2-ethanesulfonic acid (HEPES), 5 glucose and 1 g/l of bovine serum albumin; pH 7.4). This cell suspension was incubated at 37° C. for 20 min with 5 μM BCECF-acetoxymethyl ester. The cells were then washed and resuspended in a sodium- and bicarbonate-free buffer solution (mmol/l: 5 HEPES, 133.8 choline chloride, 4.7 KCl, 1.25 MgCl2, 0.97 K2HPO4, 0.23 KH2PO4, 5 glucose; pH 7.4).
For subsequent fluorescence measurement in an FLIPR (Fluorescent Imaging Plate Reader) 100 μl of this cell suspension having 20,000 cells in each case were pipetted per well into a 96-well microtiter plate and this microtiter plate was centrifuged (100 g, 5 min).
In the FLIPR, 100 μl of buffer solution in each case were then removed from a further pretreated microtiter plate and pipetted into each of the 96 wells of the measurement plate. A bicarbonate- and sodium-containing buffer solution (mmol/l: 5 HEPES, 93.8 NaCl, 40 NaHCO3, 4.7 KCl, 1.25 CaCl2, 1.25 MgCl2, 0.97 Na2HPO4, 0.23 NaH2PO4, 5 glucose; pH 7.4) which contained 50 μM HOE 642 was used for a 100% control, i.e. a recovery of the intracellular pH (pHi) via the NCBE. For a 0% control, i.e. no pHi recovery at all, the bicarbonate-free, sodium-containing buffer solution (mmol/l: 5 HEPES, 133.8 NaCl, 4.7 KCl, 1.25 CaCl2, 1.25 MgCl2, 0.97 Na2HPO4, 0.23 NaH2PO4, 5 glucose; pH 7.4) was employed, to which 50 μM HOE 642 were likewise added. The compounds according to the invention were added to the sodium- and bicarbonate-containing solution in various concentrations.
After addition of the buffer solutions to the dye-loaded, acidified cells in the measurement plate, the rise in the fluorescence intensity which corresponded to a rise in the pHi in each well of the microtiter plate was determined. The kinetics were in this case recorded at 35° C. for a period of 2 minutes.
The increase in the fluorescence intensities for different concentrations of the compounds according to the invention was related to the two controls and from this inhibitory action of the substances was determined.
Residual Activity of the NCBE at an Inhibitor Concentration of 10 μM

melting point: 122 °C (dec.)
SMILES: CCCCc1nc(SC)c(C(=O)OCC)n1Cc1cccc(-c2ccc(S(=O)(=O)NC#N)cc2C(F)(F)F)c1 [Example 26, Ethyl 2-butyl-5-methylsulfanyl-3-(4′-cyanoaminosulfonyl-2′-trifluoromethylbiphenyl-3-ylmethyl)-3H-imidazole-4-carboxylate]
Residual activity in % (residual activity of the NCBE) [1]: 65.3%

— US6335451B1, “Five-membered heterocycles having biphenylsulfonyl substitution, with sulfonylcyanamide side chain, compositions containing them, and methods of using them” (Hoechst Aktiengesellschaft, priority 1997, dated 2002)
